The values that follow come from patent publication US5475032A, “2,4-disulfonyl phenyl butyl nitrone, its salts, and their use as pharmaceuticals” (Oklahoma Medical Research Foundation, priority 1995, dated 1995).

In one data set the test system is neuronal cultures. Particulars: Dichlorofluorescein and increased intracellular free calcium Fura-2; cited from earlier work.
The subject of a further data set is rat brains. Particulars: infused into rat brains; cited from earlier work.
Data set [1] deals with embryonic hippocampal neuronal and neuronal/glial cultures. The conditions noted are these: extended period of co-incubation; cited from earlier work.
Data set [2] relates to neuron loss following brain ischemia and reperfusion injury. Description: neuronal density after 5 min bilateral carotid occlusion, compound i.p. 30 min before ischemia (Example 3). It counts as in vivo, gerbil. The conditions noted are these: for Neuronal nuclei/100 micron field: 30 min before ischemia. How it is done:
In the experiments a test compound was administered to groups of six gerbils i.p. as a single dose 30 min before 5 min bilateral carotid occlusion. The density of neuronal nuclei in a 100 micron was measured. Two controls were present--controls which received no test compound and controls which received no test compound and no brain ischemia.

For data set [3] the test system is unchanged. Kind of data set: neuronal density, post-ischemia treatment, compound i.p. 30 min after reperfusion following 5 min ischemia (Example 4). Type of data set: in vivo, gerbil.
Data set [4] is described as follows: adriamycin acute lethality and its prevention by pretreatment, DBA/2J mice (Example 13). Particulars: mouse, in vivo, ip. The protocol:
(§1) All injections were intraperitoneal. The acute lethality of adriamycin ranged from 10 to 30 mg/kg.

A short description of data set [5]: adriamycin acute lethality and its prevention by pretreatment, C57BL/6J mice (Example 13). Type of data set: in vivo. The conditions noted are these: mouse, in vivo, ip. The source says:
(§2) All injections were intraperitoneal.

Data set [6] has as its system glutamine synthetase (GS). Kind of data set: inactivation of glutamine synthetase by βAP fragments in cytosolic fractions of neocortex (Example 11). Type of data set: biochemical, gerbil. Particulars: 10 min incubation prior to assay. How it is done:
(§3) Cytosolic fractions from gerbil neocortex were prepared and enzyme activities determined. Samples were incubated in the presence of different concentrations of the peptide for 10 min prior to assay. Solid symbols represent the effects of the naturally occurring 25-35 fragment. […] Each point is the mean (+/- s.e.) of 5 observations. βAP derived and other cellular sources of free radicals are an important determinant of the initiation and progression of AD.

Data set [7] relates to creatine kinase (CK). Description: inactivation of creatine kinase by βAP fragments in cytosolic fractions of neocortex (Example 11). Type of data set: biochemical, gerbil. Particulars: 10 min incubation prior to assay. How it is done:
as §3

The test system of a further data set is neurotoxicity. The conditions noted are these: cited from earlier work.
For data set [8], the system named is neuronal loss following ischemia. Kind of data set: protection from neuronal loss, i.v. 60 min after reperfusion onset following 5 min ischemia (Example 5). Type of data set: in vivo, gerbil. The conditions noted are these: for protection for neuronal loss (neuronal density): 60 min after reperfusion onset.
The test system of data set [9] is infarct volume following middle cerebral artery occlusion. Description: rat focal ischemia model, permanent middle cerebral artery occlusion (Example 12). It counts as in vivo, Sprague Dawley rats. The conditions noted are these: both studies: 100 mg/kg i.p. then 4.2 mg/kg/hr i.v., or 10 mg/kg i.p. then 0.42 mg/kg/hr i.v., up to 24 h; 3 days post stroke. The source says: A pair of studies were done to determine the efficacy of Compound I in a rat focal ischemia model. In this model, Sprague Dawley rats (200-300 g) underwent a permanent middle cerebral artery occlusion (MCAO) to induce a focal stroke.
The rats were sacrificed 3 days post stroke, the tissue was processed histologically using triphenyltetrazolium staining techniques, and the infarct volume, the area of total cell necrosis, was quantitated using image analysis.

The nature of data set [10]: body temperature depression (Example 10). Particulars: levels as high as 1000 mg/kg, mice and gerbils. It counts as in vivo. The source says: Another undesirable systemic effect which has been observed in vivo with nitrone radical traps is a depression in body temperature. This toxicity can have serious health consequences and also can complicate diagnosis of other conditions.

Data set [11] is described as follows: doses demonstrated to be possible. Particulars: up to and higher.
In data set [12] the test system is temporal/spatial short term memory following ischemia. Description: 8-arm radial maze test 24 hours after ischemia (Example 6). It counts as in vivo, gerbil. The protocol: Brain injury can manifest itself as behavioral changes. In this experiment, young adult (3-4 months of age) gerbils were tested to determine their ability to perform an 8-arm maze test 24 hours following an ischemic event as described in Example 1. As compared to nonischemic animals, when untreated they committed many more errors. PBN and compound I were administered to some of the test animals.

Data set [13] concerns lethality from 10 min ischemia. Description: lethality protection in aged gerbils from 10 min ischemia (Example 8). It counts as in vivo, gerbil. The conditions noted are these: 30 min before ischemia.
A further data set is described as follows: solubility in water. Type of data set: physicochemical. The conditions noted are these: free acid.
The test system of data set [14] is acute lethal effects of adriamycin. Description: adriamycin acute lethality and its prevention by pretreatment, DBA/2J mice (Example 13). The protocol: as §1
The test system of data set [15] is infarct volume following middle cerebral occlusion. Description: infarct volume after middle cerebral occlusion (Example 7). It counts as in vivo, C57BL/6J mice. The conditions noted are these: from 60 min after occlusion for 24 hours. How it is done: The ability of the compound of the invention to reduce infarct volume following an ischemic event was determined.

Data set [16] relates to acute lethal effects of adriamycin. Description: adriamycin acute lethality and its prevention by pretreatment, C57BL/6J mice (Example 13). Type of data set: in vivo. The conditions noted are these: up to 300 mg/kg i.p., without adriamycin.
Source text: as §2

The test system of the next data set is Sprague Dawley rats. Description: acute toxicity in male Sprague Dawley rats (Example 14). Type of data set: in vivo, rat. Particulars: 1000 mg/kg i.p., after 3 days. How it is done:
The compounds were administered at 1000 mg/kg, i.p., to groups of 6 rats. After 3 days lethality was assessed.

Data set [17] relates to acute lethal effects of adriamycin. Description: comparative tests: nitrone pretreatment combined with adriamycin (Example 13). The conditions noted are these: doses of Compound I up to 300 mg/kg with adriamycin. It counts as in vivo, mouse.
Source text: as §2

The test system of data set [18] is glutamine synthetase (GS). Kind of data set: protection of glutamine synthetase against βAP 25-35 (Example 11). Type of data set: biochemical, gerbil. The conditions noted are these: co-incubation with 0.4 mg/ml BAP 25-35. The protocol: as §3
(§4) Each point is the mean (+/- s.e.) of 3 observations.

Data set [19] relates to creatine kinase (CK). Kind of data set: protection of creatine kinase against βAP 25-35 (Example 11). The conditions noted are these: co-incubation with 0.4 mg/ml BAP 25-35. Type of data set: biochemical, gerbil. The protocol: as §3, §4

βAP 1-40: beta amyloid peptide 1-40: the oxidative stress entry with neuronal cultures was “results in oxidative stress”. In the data set with rat brains, the “lesions in rat brains” value is listed as “lesions are produced”. Also, the cytotoxicity result in data set [1] is listed as “produces cytotoxicity”.

For the compound `CC(C)(C)[N+]([O-])=Cc1cccc(S(=O)(=O)O)c1` [Compound 3-sulfo], the “Neuronal nuclei/100 micron field” value in data set [2] (3.2 mg/kg i.p.) is listed as 0.35 Neuronal nuclei/100 micron field; in data set [2] (10 mg/kg i.p.), 0.81 Neuronal nuclei/100 micron field; in data set [2] (32 mg/kg i.p.), 1.63 Neuronal nuclei/100 micron field; in data set [2] (50 mg/kg i.p.), 1.63 Neuronal nuclei/100 micron field; in data set [2] (100 mg/kg i.p.), 1.93 Neuronal nuclei/100 micron field; in data set [2] (320 mg/kg i.p.), 1.78 Neuronal nuclei/100 micron field. Further, the “Neuronal nuclei/100 micron field” value in data set [2] (1000 mg/kg i.p.) was 1.58 Neuronal nuclei/100 micron field; in [3] (50 mg/kg i.p.), 0.73 Neuronal nuclei/100 micron field; in data set [3] (100 mg/kg i.p.) it was 1.09 Neuronal nuclei/100 micron field; in [3] (320 mg/kg i.p.), 0.93 Neuronal nuclei/100 micron field.

As to `COc1cccc2c1C(=O)c1c(O)c3c(c(O)c1C2=O)C[C@@](O)(C(=O)CO)C[C@@H]3O[C@H]1C[C@H](N)[C@H](O)[C@H](C)O1` [adriamycin], the LD50 in [4] and in [5] was 25 mg/kg throughout.

As for `CC(C)(C)[N+]([O-])=Cc1ccccc1S(=O)(=O)O` [Compound 2-sulfo, N-tert-butyl-α-(2-sulfophenyl) nitrone], the “Neuronal nuclei/100 micron field” value is on record as 0.73 Neuronal nuclei/100 micron field in data set [2] (3.2 mg/kg i.p.); 0.68 Neuronal nuclei/100 micron field in data set [2] (10 mg/kg i.p.); 0.73 Neuronal nuclei/100 micron field in data set [2] (32 mg/kg i.p.); 1.01 Neuronal nuclei/100 micron field in [2] (50 mg/kg i.p.); 0.93 Neuronal nuclei/100 micron field in data set [2] (100 mg/kg i.p.); 1.11 Neuronal nuclei/100 micron field in data set [2] (320 mg/kg i.p.). Also, the “Neuronal nuclei/100 micron field” value was 0.98 Neuronal nuclei/100 micron field in data set [2] (1000 mg/kg i.p.), 0.68 Neuronal nuclei/100 micron field in data set [3] (50 mg/kg i.p.), 0.78 Neuronal nuclei/100 micron field in data set [3] (100 mg/kg i.p.) and 0.81 Neuronal nuclei/100 micron field in data set [3] (320 mg/kg i.p.).

In the case of “βAP (25-35): proposed breakdown fragment of βAP; naturally occurring 25-35 fragment (GSNKGAIIGLM; Amyloid-beta protein 42; UniProt P05067 696-706, looked up, fragment)”, the “inactivation of glutamine synthetase” value in [6] is listed as “dose-related inactivation”. Moreover, the “inactivation of creatine kinase” value with creatine kinase (CK) [7] is on record as “dose-related inactivation”. In the data set with neurotoxicity, the neurotoxicity entry was “neurotoxic”.

In the case of `CC(C)(C)[N+]([O-])=Cc1ccc(S(=O)(=O)O)cc1S(=O)(=O)O` [Compound I], the results for the “protection for neuronal loss (neuronal density)” value in data set [8] (0.5 mg/kg single dose i.v.), in data set [8] (1.0 mg/kg single dose i.v.) and in [8] (10 mg/kg single dose i.v.) were 1.25, 1.75 and 2.43, respectively. Moreover, the “effect on neuronal density in control gerbils” value in data set [8] (control gerbils without brain injury) is “Neither PBN nor Compound I. had an effect on neuronal density”. Moreover, the “protection (infarct volume)” value in [9] is “approximately 70%”. For the same compound, in data set [10], the temperature decrease entry is recorded as “no measurable temperature decrease”. The “dose demonstrated to be possible” value in data set [11] was at least 1000 mg/kg/h. The “errors in 8-arm radial maze” value in [12] (1.0 mg/kg/hr for 24 hours) was found to be 14.63 errors; in [12] (32 mg/kg/hr for 24 hours) it was 7.19 errors; in data set [12] (50 mg/kg/hr for 24 hours), 4.28 errors; in data set [12] (100 mg/kg/hr for 24 hours) it was 4.11 errors. In [12] (high doses), the error levels entry was “error levels indistinguishable from those of nonischemic animals”. Further, the “lethality protection (% survived)” value in data set [13] (10 mg/kg) is 50%; in data set [13] (32 mg/kg), 75%; in data set [13] (100 mg/kg), 100%; in [13] (320 mg/kg), 100%. The lethality protection entry in [13] (Compound I: at high levels) is reported as “complete protection”. The solubility in “solubility in water” was over 1000 mg/mL. Moreover, in data set [14] (combination with adriamycin), the “maximally tolerated dose of adriamycin in combination” value is recorded as “marked increase in the maximally tolerated dose”. The effect on survival entry in data set [14] (up to 300 mg/kg i.p., without adriamycin, DBA/2J) is on record as “no effect on survival”; in data set [16], “no effect on survival”. The “Infarct Volume” value in data set [15] (1.0 mg/kg/hr i.v.) was 16.8 mm^3; in data set [15] (10 mg/kg/hr i.v.), 12.7 mm^3; in data set [15] (100 mg/kg/hr i.v.), 8.3 mm^3. Moreover, the “Neuronal nuclei/100 micron field” value in [2] (3.2 mg/kg i.p.) is 1.43 Neuronal nuclei/100 micron field; in data set [2] (10 mg/kg i.p.), 2.57 Neuronal nuclei/100 micron field; in [2] (32 mg/kg i.p.), 3.53 Neuronal nuclei/100 micron field; in data set [2] (50 mg/kg i.p.) it was 4.11 Neuronal nuclei/100 micron field; in data set [2] (100 mg/kg i.p.), 4.18 Neuronal nuclei/100 micron field; in data set [2] (320 mg/kg i.p.) it was 4.23 Neuronal nuclei/100 micron field. Further, the “Neuronal nuclei/100 micron field” value in data set [2] (1000 mg/kg i.p.) is given as 4.11 Neuronal nuclei/100 micron field; in data set [2] (3200 mg/kg i.p.), 4.18 Neuronal nuclei/100 micron field; in data set [3] (32 mg/kg i.p.) it was 1.83 Neuronal nuclei/100 micron field; in data set [3] (50 mg/kg i.p.), 2.73 Neuronal nuclei/100 micron field; in data set [3] (100 mg/kg i.p.), 3.41 Neuronal nuclei/100 micron field; in data set [3] (320 mg/kg i.p.), 3.55 Neuronal nuclei/100 micron field. Moreover, the “Neuronal nuclei/100 micron field” value in [3] (1000 mg/kg i.p.) is given as 3.68 Neuronal nuclei/100 micron field. In addition, the “protection against neuronal loss” value in [2] (high dose levels) is reported as “complete protection against neuronal loss”. Further, in the data set with Sprague Dawley rats, the lethality result is recorded as “no lethality”. Further, the combined toxicity result in data set [17] is reported as “did not produce any combined toxicity”. For the same compound, the “protection of GS against the effects of βAP fragments” value in data set [18] is “complete protection”. Also, the “protection of CK against the effects of βAP fragments” value in the data set with creatine kinase (CK) [19] was “complete protection”.
